Assay results as given in ChEMBL document CHEMBL5465560, “Selectivity Literature for EUbOPEN Chemogenomic Library” (2024).

Key:
[1] = biological target: Receptor tyrosine-protein kinase erbB-3 (Homo sapiens) (UniProt P21860); experiment: Selectivity interaction (KinomeScan (DiscoverX)) EUB0000666a ERBB3; conditions: at 10 µM
[2] = biological target: Sigma non-opioid intracellular receptor 1 (Homo sapiens) (UniProt Q99720); experiment: Selectivity interaction (GPCR panel (PDSP screen)) EUB0001079a SIGMAR1; conditions: at 10 µM
Sigma non-opioid intracellular receptor 1 (Homo sapiens), sequence (Q99720 whole entry): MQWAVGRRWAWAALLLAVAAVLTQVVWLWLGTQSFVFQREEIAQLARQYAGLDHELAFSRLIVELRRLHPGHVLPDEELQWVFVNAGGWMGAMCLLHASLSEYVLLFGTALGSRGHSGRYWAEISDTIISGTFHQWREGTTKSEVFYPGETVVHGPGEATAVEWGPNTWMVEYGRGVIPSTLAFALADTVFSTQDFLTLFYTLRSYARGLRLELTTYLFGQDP

[3] = biological target: Cyclin-dependent kinase 16 (Homo sapiens) (UniProt Q00536); experiment: Selectivity interaction (ActivX KiNativ screen (kinase selectivity in THP-1 cell lysates)) EUB0000639a CDK16; assay type: subcellular; conditions: lysate, at 0.04 µM
[4] = tested on: Epidermal growth factor receptor (Homo sapiens), P00533 [UNDEFINED MUTATION]; experiment: Selectivity interaction (KinomeScan (DiscoverX)) EUB0001619a EGFR; conditions: at 1 µM
[5] = tested on: Phosphatidylinositol 4,5-bisphosphate 3-kinase catalytic subunit alpha isoform (Homo sapiens), P42336 [H1047Y]; experiment: (§1) Selectivity interaction (KinomeScan (DiscoverX)) EUB0000655a PIK3CA; conditions: at 10 µM
Phosphatidylinositol 4,5-bisphosphate 3-kinase catalytic subunit alpha isoform (Homo sapiens), P42336 [H1047Y], sequence (P42336 whole entry H1047Y, canonical isoform): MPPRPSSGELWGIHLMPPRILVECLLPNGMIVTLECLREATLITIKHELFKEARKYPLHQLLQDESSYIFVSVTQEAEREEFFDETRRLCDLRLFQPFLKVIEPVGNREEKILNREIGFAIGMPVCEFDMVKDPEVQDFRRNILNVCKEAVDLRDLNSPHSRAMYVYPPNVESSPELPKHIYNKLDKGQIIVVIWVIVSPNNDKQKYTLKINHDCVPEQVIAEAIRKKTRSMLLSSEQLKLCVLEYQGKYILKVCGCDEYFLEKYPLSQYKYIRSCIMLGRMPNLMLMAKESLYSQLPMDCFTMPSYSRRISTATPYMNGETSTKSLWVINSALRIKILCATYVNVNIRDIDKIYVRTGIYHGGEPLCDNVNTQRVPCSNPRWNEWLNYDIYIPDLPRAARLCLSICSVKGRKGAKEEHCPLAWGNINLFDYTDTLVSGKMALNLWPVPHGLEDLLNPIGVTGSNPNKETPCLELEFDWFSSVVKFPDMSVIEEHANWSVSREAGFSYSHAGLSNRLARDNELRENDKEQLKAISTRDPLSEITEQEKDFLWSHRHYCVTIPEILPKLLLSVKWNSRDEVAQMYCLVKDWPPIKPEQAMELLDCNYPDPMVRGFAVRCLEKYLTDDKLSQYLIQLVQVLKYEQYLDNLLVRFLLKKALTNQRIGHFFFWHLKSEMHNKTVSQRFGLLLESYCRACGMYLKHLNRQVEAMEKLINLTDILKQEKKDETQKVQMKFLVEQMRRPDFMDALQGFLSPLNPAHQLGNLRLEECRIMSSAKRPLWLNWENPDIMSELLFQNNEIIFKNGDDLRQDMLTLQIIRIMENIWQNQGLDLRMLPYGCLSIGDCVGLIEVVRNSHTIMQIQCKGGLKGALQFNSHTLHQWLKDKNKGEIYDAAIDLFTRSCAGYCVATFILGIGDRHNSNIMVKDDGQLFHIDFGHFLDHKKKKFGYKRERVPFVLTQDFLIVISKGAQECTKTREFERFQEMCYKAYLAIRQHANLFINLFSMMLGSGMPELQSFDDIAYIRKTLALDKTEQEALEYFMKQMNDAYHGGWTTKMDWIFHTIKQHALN

[6] = tested on: Phosphatidylinositol 4,5-bisphosphate 3-kinase catalytic subunit alpha isoform (Homo sapiens), P42336 [C420R]; experiment: as §1; conditions: at 10 µM
[7] = tested on: Phosphatidylinositol 4,5-bisphosphate 3-kinase catalytic subunit alpha isoform (Homo sapiens), P42336 [E542K]; experiment: as §1; conditions: at 10 µM
[8] = tested on: Phosphatidylinositol 4,5-bisphosphate 3-kinase catalytic subunit alpha isoform (Homo sapiens), P42336 [E545A]; experiment: as §1; conditions: at 10 µM
[9] = tested on: Phosphatidylinositol 4,5-bisphosphate 3-kinase catalytic subunit alpha isoform (Homo sapiens), P42336 [M1043I]; experiment: as §1; conditions: at 10 µM
[10] = tested on: Phosphatidylinositol 4,5-bisphosphate 3-kinase catalytic subunit alpha isoform (Homo sapiens), P42336 [I800L]; experiment: as §1; conditions: at 10 µM
Phosphatidylinositol 4,5-bisphosphate 3-kinase catalytic subunit alpha isoform (Homo sapiens), P42336 [I800L], sequence (P42336 whole entry I800L, canonical isoform): as the sequence (P42336 whole entry H1047Y, canonical isoform) above, with I800L, Y1047H counted along it

[11] = tested on: Phosphatidylinositol 4,5-bisphosphate 3-kinase catalytic subunit alpha isoform (Homo sapiens), P42336 [H1047L]; experiment: as §1; conditions: at 10 µM
Phosphatidylinositol 4,5-bisphosphate 3-kinase catalytic subunit alpha isoform (Homo sapiens), P42336 [H1047L], sequence (P42336 whole entry H1047L, canonical isoform): as the sequence (P42336 whole entry H1047Y, canonical isoform) above, with Y1047L counted along it

[12] = tested on: Phosphatidylinositol 4,5-bisphosphate 3-kinase catalytic subunit alpha isoform (Homo sapiens), P42336 [Q546K]; experiment: as §1; conditions: at 10 µM
[13] = tested on: Phosphatidylinositol 4,5-bisphosphate 3-kinase catalytic subunit alpha isoform (Homo sapiens), P42336 [E545K]; experiment: as §1; conditions: at 10 µM
[14] = biological target: Phosphatidylinositol 4,5-bisphosphate 3-kinase catalytic subunit alpha isoform (Homo sapiens) (UniProt P42336); experiment: as §1; conditions: at 10 µM
[15] = biological target: T1, Muscarinic acetylcholine receptor M2 (Homo sapiens) (UniProt P08172); experiment: Selectivity interaction (Panel of kinases, GPCRs, ion channels and transporters (enzymatic assay)) EUB0000266bCl CHRM2
T1 sequence (whole entry): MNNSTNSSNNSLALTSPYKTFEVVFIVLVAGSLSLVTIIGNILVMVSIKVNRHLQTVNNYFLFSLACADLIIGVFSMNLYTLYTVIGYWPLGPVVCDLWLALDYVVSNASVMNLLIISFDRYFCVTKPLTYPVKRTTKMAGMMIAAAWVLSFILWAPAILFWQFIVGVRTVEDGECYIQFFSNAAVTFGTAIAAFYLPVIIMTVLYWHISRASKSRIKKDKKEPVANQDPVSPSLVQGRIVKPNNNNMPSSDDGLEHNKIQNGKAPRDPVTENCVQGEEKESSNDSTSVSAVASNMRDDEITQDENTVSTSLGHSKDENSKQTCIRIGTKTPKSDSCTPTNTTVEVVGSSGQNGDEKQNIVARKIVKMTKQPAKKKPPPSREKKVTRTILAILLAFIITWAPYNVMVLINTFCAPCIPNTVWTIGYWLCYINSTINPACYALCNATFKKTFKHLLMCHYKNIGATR

[16] = tested on: Hepatocyte growth factor receptor (Homo sapiens), P08581 [Y1235D]; experiment: (§2) Selectivity interaction (KinomeScan (DiscoverX)) EUB0000607a MET; conditions: at 10 µM
[17] = tested on: Hepatocyte growth factor receptor (Homo sapiens), P08581 [M1250T]; experiment: as §2; conditions: at 10 µM
[18] = biological target: Hepatocyte growth factor receptor (Homo sapiens, UniProt P08581); experiment: as §2; conditions: at 10 µM
Hepatocyte growth factor receptor, sequence (P08581 whole entry): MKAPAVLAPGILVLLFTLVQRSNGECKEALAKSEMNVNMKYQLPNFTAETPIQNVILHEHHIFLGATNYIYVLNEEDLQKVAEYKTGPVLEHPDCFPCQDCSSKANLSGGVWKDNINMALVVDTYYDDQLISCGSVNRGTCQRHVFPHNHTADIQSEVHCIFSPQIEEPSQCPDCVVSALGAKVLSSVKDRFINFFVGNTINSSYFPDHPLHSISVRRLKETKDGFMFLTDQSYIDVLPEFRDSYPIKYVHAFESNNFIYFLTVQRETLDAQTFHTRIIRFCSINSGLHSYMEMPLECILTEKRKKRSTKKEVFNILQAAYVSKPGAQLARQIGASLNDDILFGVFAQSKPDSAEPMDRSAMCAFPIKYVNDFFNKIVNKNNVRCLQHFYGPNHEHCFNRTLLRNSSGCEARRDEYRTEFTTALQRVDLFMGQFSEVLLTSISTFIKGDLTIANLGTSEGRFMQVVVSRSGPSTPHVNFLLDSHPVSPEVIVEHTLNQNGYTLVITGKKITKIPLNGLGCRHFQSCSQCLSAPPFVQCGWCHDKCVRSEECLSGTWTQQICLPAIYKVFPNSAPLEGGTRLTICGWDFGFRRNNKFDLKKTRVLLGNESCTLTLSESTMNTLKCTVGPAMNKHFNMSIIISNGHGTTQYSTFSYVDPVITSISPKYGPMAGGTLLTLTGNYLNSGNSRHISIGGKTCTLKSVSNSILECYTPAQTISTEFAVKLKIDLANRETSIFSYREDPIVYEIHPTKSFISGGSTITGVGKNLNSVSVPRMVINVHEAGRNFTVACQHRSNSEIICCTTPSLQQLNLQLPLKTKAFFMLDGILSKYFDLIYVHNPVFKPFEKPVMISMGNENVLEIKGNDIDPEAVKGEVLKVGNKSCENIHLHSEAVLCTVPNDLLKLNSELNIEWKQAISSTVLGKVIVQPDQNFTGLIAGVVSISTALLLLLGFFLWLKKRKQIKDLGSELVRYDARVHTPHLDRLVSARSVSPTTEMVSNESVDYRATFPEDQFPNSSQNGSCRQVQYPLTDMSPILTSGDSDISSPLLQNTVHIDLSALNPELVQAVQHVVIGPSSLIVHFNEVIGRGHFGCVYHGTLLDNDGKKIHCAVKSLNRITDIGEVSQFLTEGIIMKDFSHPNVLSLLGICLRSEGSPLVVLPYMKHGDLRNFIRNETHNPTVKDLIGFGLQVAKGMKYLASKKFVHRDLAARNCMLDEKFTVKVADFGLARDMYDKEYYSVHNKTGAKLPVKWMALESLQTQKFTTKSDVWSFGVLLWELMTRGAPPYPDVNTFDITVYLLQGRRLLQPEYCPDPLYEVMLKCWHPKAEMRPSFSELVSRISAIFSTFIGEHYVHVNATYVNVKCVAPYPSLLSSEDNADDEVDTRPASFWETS

[19] = biological target: T2, Cytoplasmic tyrosine-protein kinase BMX (Homo sapiens) (UniProt P51813); experiment: Selectivity interaction (SelectScreen profiling (Invitrogen)) EUB0000607a BMX; conditions: at 2 µM
T2 sequence (whole entry): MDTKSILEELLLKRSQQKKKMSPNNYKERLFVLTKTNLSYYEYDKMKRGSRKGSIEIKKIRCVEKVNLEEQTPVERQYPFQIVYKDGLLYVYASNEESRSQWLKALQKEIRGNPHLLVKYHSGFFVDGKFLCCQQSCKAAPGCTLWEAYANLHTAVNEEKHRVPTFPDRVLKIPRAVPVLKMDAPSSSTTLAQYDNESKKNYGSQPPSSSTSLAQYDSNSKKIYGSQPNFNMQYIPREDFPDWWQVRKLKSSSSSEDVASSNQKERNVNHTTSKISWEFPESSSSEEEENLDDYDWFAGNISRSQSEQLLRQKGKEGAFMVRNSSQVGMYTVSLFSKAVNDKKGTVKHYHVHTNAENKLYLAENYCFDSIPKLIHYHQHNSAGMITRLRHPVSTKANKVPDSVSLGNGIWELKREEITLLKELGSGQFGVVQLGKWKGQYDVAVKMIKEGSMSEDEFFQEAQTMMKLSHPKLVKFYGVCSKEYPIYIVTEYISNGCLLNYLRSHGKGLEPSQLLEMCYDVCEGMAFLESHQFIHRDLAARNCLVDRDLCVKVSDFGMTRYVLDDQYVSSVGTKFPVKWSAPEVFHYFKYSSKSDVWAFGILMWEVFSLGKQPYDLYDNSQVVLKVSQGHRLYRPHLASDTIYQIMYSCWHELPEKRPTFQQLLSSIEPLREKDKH

[20] = biological target: Glycogen synthase kinase-3 beta (Homo sapiens, UniProt P49841); experiment: Selectivity interaction (SelectScreen profiling (Invitrogen)) EUB0000607a GSK3B; conditions: at 2 µM
[21] = biological target: T3, Aurora kinase A (Homo sapiens) (UniProt O14965); experiment: Selectivity interaction (ProQinase) EUB0000171b STK6
T3 sequence (whole entry): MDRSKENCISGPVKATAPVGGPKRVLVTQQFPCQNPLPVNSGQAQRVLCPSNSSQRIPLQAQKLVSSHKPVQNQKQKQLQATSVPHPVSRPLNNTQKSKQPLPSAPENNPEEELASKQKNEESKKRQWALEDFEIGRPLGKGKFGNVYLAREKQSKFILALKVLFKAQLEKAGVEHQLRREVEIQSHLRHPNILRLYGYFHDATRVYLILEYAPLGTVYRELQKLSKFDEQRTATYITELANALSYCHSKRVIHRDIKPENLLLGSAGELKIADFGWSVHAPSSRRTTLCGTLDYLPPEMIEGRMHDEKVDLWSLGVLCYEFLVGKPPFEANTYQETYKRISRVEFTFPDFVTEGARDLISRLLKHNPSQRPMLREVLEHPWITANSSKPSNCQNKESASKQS

O=C(NOC[C@H](O)CO)c1ccc(F)c(F)c1Nc1ccc(I)cc1F showed a % of control [1] of 100%.

With Nc1cnc(N2CCc3cc(S(=O)(=O)Nc4c(F)cc(Cl)cc4F)cc(N4CCCC4=O)c32)nc1 [TP-020n] the % of inhibition [2] was -14.4%.

CC[C@@H]1[C@H](F)C(=O)N[C@@H]1COc1nccc2cc(C(N)=O)c(OC)cc12 [ZIMLOVISERTIB] was tested, and the % of inhibition [3] was 0.5%.

N#Cc1cccc(-c2c[nH]c3ncnc(N4CCOCC4)c23)c1 was tested, and the % of control [4] was 100%.

Compound CN(C)CCOc1ccc(-c2nc(-c3ccncc3)c(-c3ccc4c(c3)CC/C4=N\O)[nH]2)cc1 has a % of control [5] of 88%, a % of control [6] of 100% and a % of control [7] of 93%. It also gave a % of control [8] of 83%, a % of control [9] of 84% and a % of control [10] of 81%. The % of control [11] was 98%, the % of control [12] was 81% and the % of control [13] was 100%. The % of control [14] was 85%.

CCn1c(-c2nc3cc(C(=O)N4CCCC(N)C4)ccc3n2C)cc2ccccc21 (configuration not stated) was tested, and the pXC50 [15] was < 4.8 M.

CNC(=O)Nc1ccc(-c2nc(N3CC4CCC(C3)O4)c3cnn(C4CCC5(CC4)OCCO5)c3n2)cc1 gave a % of control [16] of 24%, a % of control [17] of 87% and a % of control [18] of 93%. The % of inhibition [19] was 10% and the % of inhibition [20] was 1%.

C=CC(=O)Nc1cccc(C(=O)Nc2ccc(Nc3cc(-c4[nH]c(SC)nc4C)ccn3)cc2)c1 showed a % of control ([21]; at 1 µM) of 74% and a % of control ([21]; at 5 µM) of 34%.
